In patent US20230226008A1 (Massachusetts Eye and Ear Infirmary, priority 2020, published 2023):

Experiments:
P-gp = P-gp (Homo sapiens, UniProt P08183); details: literature reference 29; cited from earlier work
[1] = system: organotypic nasal polyp explants

P-gp, sequence (P08183 whole entry): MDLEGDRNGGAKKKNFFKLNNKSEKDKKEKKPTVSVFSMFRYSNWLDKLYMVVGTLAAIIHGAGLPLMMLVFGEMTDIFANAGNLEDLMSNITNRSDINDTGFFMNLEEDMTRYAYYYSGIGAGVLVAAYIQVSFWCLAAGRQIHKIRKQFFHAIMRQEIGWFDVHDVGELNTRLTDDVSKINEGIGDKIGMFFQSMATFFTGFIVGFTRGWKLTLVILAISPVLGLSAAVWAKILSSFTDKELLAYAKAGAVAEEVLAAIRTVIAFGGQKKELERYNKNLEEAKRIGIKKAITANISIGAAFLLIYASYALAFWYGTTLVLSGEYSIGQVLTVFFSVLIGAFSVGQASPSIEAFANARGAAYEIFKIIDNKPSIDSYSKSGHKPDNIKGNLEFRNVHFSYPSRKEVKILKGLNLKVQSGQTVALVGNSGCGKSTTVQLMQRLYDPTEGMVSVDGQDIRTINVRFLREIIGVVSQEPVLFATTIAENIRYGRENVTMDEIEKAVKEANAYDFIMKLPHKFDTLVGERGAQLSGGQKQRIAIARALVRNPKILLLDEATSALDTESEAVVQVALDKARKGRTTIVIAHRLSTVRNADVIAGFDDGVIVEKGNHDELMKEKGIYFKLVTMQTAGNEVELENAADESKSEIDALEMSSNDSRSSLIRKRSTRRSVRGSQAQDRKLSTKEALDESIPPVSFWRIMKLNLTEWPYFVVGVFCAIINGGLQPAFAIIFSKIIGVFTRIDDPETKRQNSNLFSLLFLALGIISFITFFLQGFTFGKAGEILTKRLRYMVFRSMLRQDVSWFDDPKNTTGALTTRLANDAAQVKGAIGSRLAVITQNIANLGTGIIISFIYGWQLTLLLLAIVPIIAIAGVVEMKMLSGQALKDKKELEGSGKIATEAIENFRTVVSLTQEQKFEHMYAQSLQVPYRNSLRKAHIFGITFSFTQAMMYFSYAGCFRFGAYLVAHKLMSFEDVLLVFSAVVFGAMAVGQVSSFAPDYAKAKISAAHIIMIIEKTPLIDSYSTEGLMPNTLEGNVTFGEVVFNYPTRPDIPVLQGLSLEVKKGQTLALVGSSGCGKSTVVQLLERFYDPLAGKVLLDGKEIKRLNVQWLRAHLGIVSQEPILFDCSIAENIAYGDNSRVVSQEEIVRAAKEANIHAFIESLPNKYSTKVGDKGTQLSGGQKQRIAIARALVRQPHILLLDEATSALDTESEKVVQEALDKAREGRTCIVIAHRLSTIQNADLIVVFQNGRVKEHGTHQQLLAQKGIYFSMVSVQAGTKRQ

tissue mometasone retention in polyps versus lower P-gp expressing turbinates [1]	reduction in mometasone retention between the lowest and highest P-gp expressing polyp explants ([1]; human, not told, 60 min) [fold]	P-gp substrate status ([1]; not told)	Structure (SMILES)	affinity for P-gp (P-gp)
			CCCC1O[C@@H]2C[C@H]3[C@@H]4CCC5=CC(=O)C=C[C@]5(C)[C@H]4[C@@H](O)C[C@]3(C)[C@]2(C(=O)CO)O1 (stereo partly shown) [budesonide]	high affinity
significantly lower	~6	substrate of P-gp	C[C@@H]1C[C@H]2[C@@H]3CCC4=CC(=O)C=C[C@]4(C)[C@@]3(Cl)[C@@H](O)C[C@]2(C)[C@@]1(OC(=O)c1ccco1)C(=O)CCl [mometasone, [(8S,9R,10S,11S,13S,14S,16R,17R)-9-chloro-17-(2-chloroacetyl)-11-hydroxy-10,13,16-trimethyl-3-oxo-6,7,8,11,12,14,15,16-octahydrocyclopenta[a]phenanthren-17-yl]furan-2-carboxylate]	
